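Growth conditions: 96-well plates. Treatment: test compound, 48 hours, 5 concentrations. Analysis: linear interpolation between bracketing concentrations; unreached endpoints set to highest concentration. GI50: concentration for 50% inhibition of growth.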 Calls of active or inactive are those of the source. Cut-off read from the data, not from the text of the source: active = GI50 up to about 1.1 µM and inactive = higher.
Columns and labels:
Assay in all cases: NCI tumour cell line growth inhibition, 48 h
[1] = system: 786-0
[2] = system: A549
[3] = system: ACHN
[4] = system: BT-549
[5] = system: DU-145
[6] = system: HOP-62
[7] = system: HT-29
[8] = system: KM12
[9] = system: MDA-N
[10] = system: Malme-3M
[11] = system: NCI-H460
[12] = system: RPMI-8226
[13] = system: SF-295
[14] = system: SF-539
[15] = system: SK-MEL-28
[16] = system: SNB-19
[17] = system: SNB-75
[18] = system: T47D
[19] = system: HCT-116
[20] = system: HOP-92

SMILES | GI50 [1] | GI50 [2] | GI50 [3] | GI50 [4] | GI50 [5] | GI50 [6] | GI50 [7] | GI50 [8] | GI50 [9] | GI50 [10] | GI50 [11] | GI50 [12] | GI50 [13] | GI50 [14] | GI50 [15] | GI50 [16] | GI50 [17] | GI50 [18] | GI50 [19] | GI50 [20]
Cn1c(CO)ccc1-c1ccc(-c2ccc[se]2)[se]1 | 29.1 µM (inactive) | 17.1 µM (inactive) | 72.1 µM (inactive) | 21.8 µM (inactive) | 17.7 µM (inactive) | 20.7 µM (inactive) | 31.7 µM (inactive) | 19.8 µM (inactive) | 15.5 µM (inactive) | > 72.1 µM (inactive) | 14.2 µM (inactive) | 20.9 µM (inactive) | 34.6 µM (inactive) | 17.3 µM (inactive) | > 49.5 µM (inactive) | 30.7 µM (inactive) | 12.8 µM (inactive) | 0.155 µM (active) |  | 
O=C1CC(c2ccco2)C2(C(=O)NC(=O)NC2=O)C(c2ccco2)C1 (stereo not drawn) | > 75 µM (inactive) | > 75 µM (inactive) | > 75 µM (inactive) | > 75 µM (inactive) | > 75 µM (inactive) | > 75 µM (inactive) | > 75 µM (inactive) | > 75 µM (inactive) | > 75 µM (inactive) | > 75 µM (inactive) | > 75 µM (inactive) | > 75 µM (inactive) | > 75 µM (inactive) | > 75 µM (inactive) | > 75 µM (inactive) | > 75 µM (inactive) | > 75 µM (inactive) | > 75 µM (inactive) | > 75 µM (inactive) | 
O=c1[nH]nc(-c2ccc3ccccc3c2)[nH]1 | > 100 µM (inactive) | > 100 µM (inactive) | > 100 µM (inactive) | > 100 µM (inactive) | > 100 µM (inactive) | > 100 µM (inactive) | > 100 µM (inactive) | 36.2 µM (inactive) | > 100 µM (inactive) | > 100 µM (inactive) | > 100 µM (inactive) | > 100 µM (inactive) | 45.5 µM (inactive) | > 100 µM (inactive) | > 100 µM (inactive) | > 100 µM (inactive) | 22.9 µM (inactive) | > 100 µM (inactive) | > 100 µM (inactive) | 
Cc1ccc(C)c(COCCOCn2cc(Br)c(N)nc2=O)c1 | > 100 µM (inactive) | > 100 µM (inactive) | > 100 µM (inactive) | > 100 µM (inactive) | > 100 µM (inactive) | 57.3 µM (inactive) |  | > 100 µM (inactive) | > 100 µM (inactive) | > 100 µM (inactive) | > 100 µM (inactive) |  | > 100 µM (inactive) | > 100 µM (inactive) | > 100 µM (inactive) | > 100 µM (inactive) | > 100 µM (inactive) | > 100 µM (inactive) | > 100 µM (inactive) | > 100 µM (inactive)
CSc1nc(C#N)c(N)n1C | > 100 µM (inactive) | > 100 µM (inactive) | > 100 µM (inactive) | > 100 µM (inactive) | 64.1 µM (inactive) | > 100 µM (inactive) |  | > 100 µM (inactive) | > 100 µM (inactive) | > 100 µM (inactive) | > 100 µM (inactive) | > 100 µM (inactive) | > 100 µM (inactive) | > 100 µM (inactive) | > 100 µM (inactive) | > 100 µM (inactive) |  | > 100 µM (inactive) | > 100 µM (inactive) | > 100 µM (inactive)
CCCC(c1cc(C(C)(C)C)c(O)cc1C)c1cc(C(C)(C)C)c(O)cc1C | 2.31 µM (inactive) | 2.99 µM (inactive) | 2.67 µM (inactive) | 9.79 µM (inactive) | 4.05 µM (inactive) | 3.05 µM (inactive) | 6.65 µM (inactive) | 3.32 µM (inactive) | 1.87 µM (inactive) | 3.05 µM (inactive) | 1.95 µM (inactive) | 2.24 µM (inactive) | 2.4 µM (inactive) | 2.39 µM (inactive) | 3.48 µM (inactive) | 4.99 µM (inactive) |  | 2.56 µM (inactive) | 1.91 µM (inactive) | 8.41 µM (inactive)
O=C1CCC(=O)N1CNc1ccc2c(c1)Sc1ccccc1O2 | 23.6 µM (inactive) | 33 µM (inactive) | 47 µM (inactive) | 26.6 µM (inactive) | 32.5 µM (inactive) | 43.7 µM (inactive) | 23.5 µM (inactive) | 36.7 µM (inactive) | 30.2 µM (inactive) | 58.6 µM (inactive) |  | 33.9 µM (inactive) | 29.4 µM (inactive) | 15.6 µM (inactive) | 87.3 µM (inactive) | 67.3 µM (inactive) |  | 25.2 µM (inactive) | 21.3 µM (inactive) | 21.5 µM (inactive)
COC(=O)[C@]12CCC(=O)N1[C@H](C(=O)O)Cc1c2[nH]c2ccccc12 | > 100 µM (inactive) | > 100 µM (inactive) | > 100 µM (inactive) | > 100 µM (inactive) | > 100 µM (inactive) | > 100 µM (inactive) | > 100 µM (inactive) | > 100 µM (inactive) | > 100 µM (inactive) | > 100 µM (inactive) | > 100 µM (inactive) |  | > 100 µM (inactive) | > 100 µM (inactive) | > 100 µM (inactive) | > 100 µM (inactive) | > 100 µM (inactive) | > 100 µM (inactive) | > 100 µM (inactive) | > 100 µM (inactive)
O=C(c1ccccc1)N1N=C(C(F)(F)F)CC1(O)C(F)(F)F (stereo not drawn) | > 100 µM (inactive) | > 100 µM (inactive) | > 100 µM (inactive) | > 100 µM (inactive) | > 100 µM (inactive) | > 100 µM (inactive) | > 100 µM (inactive) | > 100 µM (inactive) | > 100 µM (inactive) | > 100 µM (inactive) | > 100 µM (inactive) | > 100 µM (inactive) | > 100 µM (inactive) | > 100 µM (inactive) | > 100 µM (inactive) | > 100 µM (inactive) | > 100 µM (inactive) | > 100 µM (inactive) | > 100 µM (inactive) | 
O=C1NC(=O)C(C(c2ccc(Cl)cc2)C2C(=O)NC(=O)NC2=O)C(=O)N1.c1ccncc1 | > 100 µM (inactive) | > 100 µM (inactive) | > 100 µM (inactive) | > 100 µM (inactive) | > 100 µM (inactive) | > 100 µM (inactive) | > 100 µM (inactive) | > 100 µM (inactive) | > 100 µM (inactive) | > 100 µM (inactive) | > 100 µM (inactive) | > 100 µM (inactive) | > 100 µM (inactive) |  | > 100 µM (inactive) | > 100 µM (inactive) |  | > 100 µM (inactive) | > 100 µM (inactive) | > 100 µM (inactive)
CCNC(=S)N/N=C(\C)c1cccc(C)n1 | 12.8 µM (inactive) | 20.6 µM (inactive) | 9.27 µM (inactive) | 31.5 µM (inactive) | 14.9 µM (inactive) | 29.7 µM (inactive) | 3.09 µM (inactive) | 20.3 µM (inactive) | 28.2 µM (inactive) | 2.39 µM (inactive) | 6.01 µM (inactive) |  | 26.9 µM (inactive) | 18.7 µM (inactive) | 22.3 µM (inactive) | 30.3 µM (inactive) | 75.2 µM (inactive) | 0.643 µM (active) | 7.18 µM (inactive) | 13.5 µM (inactive)
COc1cc(-c2oc(/C=N/c3ccccc3)c([N+](=O)[O-])c2-c2ccc(O)c(OC)c2)ccc1O | 20.6 µM (inactive) | 39.2 µM (inactive) | 16.1 µM (inactive) | 29.6 µM (inactive) | 20.1 µM (inactive) | 33.8 µM (inactive) | 17.1 µM (inactive) | 21.7 µM (inactive) | 31 µM (inactive) |  | 16.1 µM (inactive) | 25.1 µM (inactive) | 31.6 µM (inactive) | 17.4 µM (inactive) | 19.5 µM (inactive) | 22.4 µM (inactive) | 11.5 µM (inactive) | 38.9 µM (inactive) | 18.4 µM (inactive) | 13.8 µM (inactive)
CCCCc1c(C(=O)OC(C)(C)C)cc(C#Cc2cc(C(=O)OC(C)(C)C)c(CCCC)c(C(=O)OC(C)(C)C)c2)cc1C(=O)OC(C)(C)C | > 100 µM (inactive) | > 100 µM (inactive) | > 100 µM (inactive) | > 100 µM (inactive) | > 100 µM (inactive) | > 100 µM (inactive) |  | > 100 µM (inactive) | > 100 µM (inactive) | > 100 µM (inactive) | > 100 µM (inactive) | > 100 µM (inactive) | > 100 µM (inactive) |  | > 100 µM (inactive) | > 100 µM (inactive) | > 100 µM (inactive) | > 100 µM (inactive) | > 100 µM (inactive) | > 100 µM (inactive)
COc1ncc(C#CC(=O)c2ccccc2)c(OC)n1 | 2.04 µM (inactive) | 11.6 µM (inactive) | 1.77 µM (inactive) | 2.17 µM (inactive) | 8.07 µM (inactive) | 19.3 µM (inactive) | 1.88 µM (inactive) | 6.85 µM (inactive) | 1.71 µM (inactive) | 1.67 µM (inactive) | 13.4 µM (inactive) | 2.33 µM (inactive) | 16.6 µM (inactive) |  | 5.11 µM (inactive) | 15.8 µM (inactive) | 5.2 µM (inactive) | 5.83 µM (inactive) | 4.95 µM (inactive) | 2.15 µM (inactive)
Cc1ccccc1NC(=O)/C(C#N)=N\Nc1[nH]cnc1C(N)=O | 19.3 µM (inactive) | > 100 µM (inactive) | 5.28 µM (inactive) | > 100 µM (inactive) | 2.79 µM (inactive) | 6.12 µM (inactive) | 38.6 µM (inactive) | 28.6 µM (inactive) | 12.9 µM (inactive) | 4.62 µM (inactive) | 9.33 µM (inactive) | 1.83 µM (inactive) | 9.82 µM (inactive) |  | 28.7 µM (inactive) | > 100 µM (inactive) | 54.5 µM (inactive) | 25.9 µM (inactive) | 4.37 µM (inactive) | 

From ChEMBL document CHEMBL1201862, “PubChem BioAssay data set” (2004)
